According to US11786503B2, “Pharmaceutical compositions and methods for countering chemotherapy induced cardiotoxicity” (Auransa Inc., priority 2016, dated 2023):
One block for each molecule: values may come before it.

Legend:
TOPOIIα = target: T1, TOPOIIα (Homo sapiens, UniProt P11388); test: kDNA decatenation assay, TOPOIIα; type: biochemical;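 also: kDNA incubated with one unit of TOPOIIα at 37 °C for 30 min, decatenated product resolved on 1% agarose gel, inhibition from relative band intensity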
T1 construct: purchased Inspiralis

TOPOIIβ = target: T2, TOPOIIβ (Homo sapiens, UniProt Q02880); test: kDNA decatenation assay, TOPOIIβ; type: biochemical;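 also: kinetoplast DNA incubated with one unit of TOPOIIβ at 37 °C for 30 min, decatenated product resolved on 1% agarose gel, inhibition scored from relative band intensity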
T2 construct: purchased Inspiralis

[1] = tested on: Doxorubicin treated human iPSC-derived cardiomyocytes; test: iPSC-CM protection by myricetin analogs (Table 1); type: cell-based
[2] = tested on: cardiomyocytes differentiated from induced pluripotent stem cells; test: doxorubicin-induced mitochondrial toxicity, TMRM-negative cells, 48 hours (Example 17); type: cell-based, human; conditions: 1 μM doxorubicin, KAE 17 μM, AMB 0.76 μM, MES 10 μM, NAC 50 μM, Dex 160 μM, VIT 115 μM
Protocol: Following treatment, the samples were incubated with a tetramethylrhodamine methyl ester (TMRM) dye to indicate mitochondrial health, and a second dye to identify cell nuclei.

A549 cells = test: doxorubicin-mediated death of lung cancer cells, CellTiter-Glo (Example 22); type: cell-based; conditions: co-treated with increasing concentrations of doxorubicin, 72 hours
Protocol: A549 cells (lung cancer) were cultured for 1 day before performing experiments. […] XLFit was used for curve fitting.

[3] = tested on: cardiomyocytes differentiated from induced pluripotent stem cells; test: long term toxicity on electrophysiology, active electrodes (Example 24); type: cell-based; conditions: various concentrations, at least 5 days
Protocol: Samples were either mock-treated with 0.1% DMSO, or treated with various concentrations of the indicated drug. Following treatment, the percentage of active electrodes in each sample was measured for at least 5 days. Percentage of active electrodes was quantified and graphed in a time course.

MDA-MB-231 cells = conditions: co-treated with increasing concentrations of doxorubicin, 72 hours
cardiomyocytes = test: cytotoxicity of myricetin analogs to cardiomyocytes (Table 1, Toxicity)
[4] = tested on: cardiomyocytes differentiated from induced pluripotent stem cells; test: doxorubicin-induced apoptosis, TUNEL dye, 48 hours (Example 18); type: cell-based, human; conditions: 1 μM doxorubicin, VIT 115 μM, Dex 160 μM, AMB 0.76 μM, NAC 50 μM, KAE 17 μM, MES 10 μM
Protocol: Following treatment, the samples were incubated with a TUNEL dye to indicate apoptosis-positive cells, and a second dye to identify cell nuclei.

[5] = tested on: cardiomyocytes differentiated from induced pluripotent stem cells; test: long-term mitochondrial health, TMRM, 7 days (Example 19); type: cell-based, human; conditions: doxorubicin and vitexin, compared to doxorubicin or doxorubicin and dexrazoxane
[6] = tested on: cardiomyocytes differentiated from induced pluripotent stem cells; test: electrophysiological activity with doxorubicin, active electrodes (Example 20); type: cell-based, human; conditions: for decrease in the number of active electrodes: 24 hours
Protocol: Samples were either mock-treated with 0.1% DMSO, treated with 1 μM doxorubicin, or co-treated with 1 μM doxorubicin and various concentrations of vitexin (e.g., 11.6 μM, 37 μM, or 116 μM). Following treatment, the percentage of active electrodes in each sample was measured for 72 hours. Percentage of active electrodes was quantified and graphed in a time course (FIG. 28A). The average number of active electrodes per well was quantified and graphed at 30 hours after the treatment (FIG. 28B, n=6, standard deviation is shown as error bars).

[7] = tested on: cardiomyocytes differentiated from induced pluripotent stem cells; test: acute toxicity on electrophysiology, MEA beat period and field potential duration (Example 23); type: cell-based; conditions: lower drug concentration, at least 20 minutes
Protocol: Samples were either mock-treated with 0.1% DMSO, or treated with increasing concentrations of the indicated drug for at least 20 minutes. Cardiomyocytes were treated with the hERG potassium channel blocker E4031 as a control. Following treatment, the beat period and field potential duration (FPD) were measured in each sample using the MEA.

T1 sequence (P11388 whole entry): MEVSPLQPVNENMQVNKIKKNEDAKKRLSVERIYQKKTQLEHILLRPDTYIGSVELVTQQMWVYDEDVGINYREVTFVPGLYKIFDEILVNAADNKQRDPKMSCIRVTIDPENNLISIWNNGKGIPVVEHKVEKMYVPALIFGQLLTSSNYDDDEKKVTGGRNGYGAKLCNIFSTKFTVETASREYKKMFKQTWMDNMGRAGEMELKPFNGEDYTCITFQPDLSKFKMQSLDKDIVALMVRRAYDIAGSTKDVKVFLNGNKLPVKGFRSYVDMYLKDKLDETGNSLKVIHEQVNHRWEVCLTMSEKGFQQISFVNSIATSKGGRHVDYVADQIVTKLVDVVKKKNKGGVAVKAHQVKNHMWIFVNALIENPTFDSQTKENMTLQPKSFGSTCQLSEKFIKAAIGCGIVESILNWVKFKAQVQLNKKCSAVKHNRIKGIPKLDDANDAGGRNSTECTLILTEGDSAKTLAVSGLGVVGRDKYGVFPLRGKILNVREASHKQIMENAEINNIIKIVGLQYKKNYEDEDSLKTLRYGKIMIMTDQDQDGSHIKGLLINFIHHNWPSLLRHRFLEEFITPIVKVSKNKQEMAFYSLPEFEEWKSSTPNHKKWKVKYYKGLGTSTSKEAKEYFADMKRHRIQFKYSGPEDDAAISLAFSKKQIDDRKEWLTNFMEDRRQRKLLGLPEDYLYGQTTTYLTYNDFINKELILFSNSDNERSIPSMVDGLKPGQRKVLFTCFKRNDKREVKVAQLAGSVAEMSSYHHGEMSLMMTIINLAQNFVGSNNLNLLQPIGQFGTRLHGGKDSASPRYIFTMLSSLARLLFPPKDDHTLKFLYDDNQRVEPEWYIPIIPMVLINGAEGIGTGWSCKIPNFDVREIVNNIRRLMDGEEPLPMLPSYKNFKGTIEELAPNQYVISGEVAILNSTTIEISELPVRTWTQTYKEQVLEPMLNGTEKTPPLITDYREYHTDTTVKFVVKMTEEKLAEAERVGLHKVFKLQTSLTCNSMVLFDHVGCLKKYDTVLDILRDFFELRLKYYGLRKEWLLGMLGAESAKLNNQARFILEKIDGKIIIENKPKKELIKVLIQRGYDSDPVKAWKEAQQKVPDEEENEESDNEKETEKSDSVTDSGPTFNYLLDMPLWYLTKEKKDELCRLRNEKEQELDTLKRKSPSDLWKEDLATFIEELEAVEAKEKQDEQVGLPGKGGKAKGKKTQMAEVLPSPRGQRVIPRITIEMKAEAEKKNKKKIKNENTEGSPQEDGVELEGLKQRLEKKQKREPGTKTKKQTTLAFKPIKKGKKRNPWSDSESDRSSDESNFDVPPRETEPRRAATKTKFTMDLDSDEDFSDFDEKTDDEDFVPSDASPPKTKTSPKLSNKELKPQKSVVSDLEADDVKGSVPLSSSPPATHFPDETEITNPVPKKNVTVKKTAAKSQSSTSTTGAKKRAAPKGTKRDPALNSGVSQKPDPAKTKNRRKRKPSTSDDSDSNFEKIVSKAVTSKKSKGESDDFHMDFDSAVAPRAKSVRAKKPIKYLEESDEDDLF
T2 sequence (Q02880 whole entry): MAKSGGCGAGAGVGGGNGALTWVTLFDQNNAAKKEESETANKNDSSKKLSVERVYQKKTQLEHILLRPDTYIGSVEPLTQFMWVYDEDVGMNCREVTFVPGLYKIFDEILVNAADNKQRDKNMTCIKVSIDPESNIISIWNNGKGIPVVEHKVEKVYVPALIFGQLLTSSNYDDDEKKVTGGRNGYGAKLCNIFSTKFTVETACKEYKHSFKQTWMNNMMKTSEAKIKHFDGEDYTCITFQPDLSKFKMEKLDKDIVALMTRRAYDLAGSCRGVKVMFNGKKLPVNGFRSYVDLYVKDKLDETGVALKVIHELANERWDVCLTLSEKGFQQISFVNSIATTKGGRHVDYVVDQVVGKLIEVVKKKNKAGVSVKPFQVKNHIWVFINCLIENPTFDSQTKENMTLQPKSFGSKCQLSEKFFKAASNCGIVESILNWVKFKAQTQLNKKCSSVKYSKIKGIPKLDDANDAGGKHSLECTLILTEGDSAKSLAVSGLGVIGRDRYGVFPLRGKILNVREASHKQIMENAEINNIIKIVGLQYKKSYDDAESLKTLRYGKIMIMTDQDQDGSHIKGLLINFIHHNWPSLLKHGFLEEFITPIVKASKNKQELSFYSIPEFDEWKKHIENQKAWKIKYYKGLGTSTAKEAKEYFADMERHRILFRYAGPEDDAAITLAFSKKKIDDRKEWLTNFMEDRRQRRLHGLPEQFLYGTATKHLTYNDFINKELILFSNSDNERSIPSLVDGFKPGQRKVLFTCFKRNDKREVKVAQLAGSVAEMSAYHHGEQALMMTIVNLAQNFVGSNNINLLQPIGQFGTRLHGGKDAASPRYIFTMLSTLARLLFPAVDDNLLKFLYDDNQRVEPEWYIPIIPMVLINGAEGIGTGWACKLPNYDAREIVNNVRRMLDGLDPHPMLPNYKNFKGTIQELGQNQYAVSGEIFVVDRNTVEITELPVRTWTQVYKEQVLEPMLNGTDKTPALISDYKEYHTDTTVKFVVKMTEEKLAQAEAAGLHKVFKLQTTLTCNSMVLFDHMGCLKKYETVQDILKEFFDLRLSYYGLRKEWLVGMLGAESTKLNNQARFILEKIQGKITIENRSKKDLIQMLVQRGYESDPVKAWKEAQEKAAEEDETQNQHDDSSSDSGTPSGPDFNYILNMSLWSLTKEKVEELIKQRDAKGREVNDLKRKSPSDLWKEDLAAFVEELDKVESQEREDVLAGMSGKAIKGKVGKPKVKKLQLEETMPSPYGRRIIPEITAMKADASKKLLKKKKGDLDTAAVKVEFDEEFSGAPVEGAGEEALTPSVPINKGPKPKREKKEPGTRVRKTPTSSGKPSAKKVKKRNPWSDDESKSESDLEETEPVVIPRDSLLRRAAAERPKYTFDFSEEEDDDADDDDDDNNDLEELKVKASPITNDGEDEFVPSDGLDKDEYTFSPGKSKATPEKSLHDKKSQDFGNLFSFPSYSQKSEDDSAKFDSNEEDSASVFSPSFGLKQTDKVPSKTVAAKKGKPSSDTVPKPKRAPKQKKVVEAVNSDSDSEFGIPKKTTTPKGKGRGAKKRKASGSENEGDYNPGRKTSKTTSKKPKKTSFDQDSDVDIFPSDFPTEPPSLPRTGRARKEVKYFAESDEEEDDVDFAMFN

TOPIIα Inhibition (TOPOIIα): −
TOPOIIα inhibition, in words (TOPOIIα; decatenation assay): did not exhibit any inhibitory effect
TOPIIβ Inhibition (TOPOIIβ): −
TOPOIIβ inhibition, in words (TOPOIIβ; decatenation assay): did not exhibit any inhibitory effect
Structure (SMILES): O=c1c(O)c(-c2ccc(O)cc2)oc2cc(O)cc(O)c12 [Compound 7, 3,5,7,4′-tetrahydroxyflavone]
maximum rescue rate [1]: < 50%
EC50 ([1]; Homo sapiens, iPSC-CM, read-out: iPSC-CM protection EC50): 26 µM
Emax ([1]; Homo sapiens, iPSC-CM, read-out: iPSC-CM protection Max Effect (%)): 46%
cardioprotection, in words ([1]; Table 1): moderate level of cardioprotection
decrease in mitochondrial toxicity, compared to doxorubicin without protective agent [2]: at least 60%
difference in the percentage of cell death vs doxorubicin without protective agent (A549 cells): no significant difference
decrease in the number of active electrodes relative to the mock-treated sample [3]: no observable decrease
difference in the percentage of cell death vs doxorubicin without protective agent (MDA-MB-231 cells): no significant difference
Toxicity (cardiomyocytes; * = cytotoxicity at 100 μM): −
toxic effects at concentrations less than 100 μM (cardiomyocytes; Table 1): did not show toxic effects
cytotoxicity, in words (cardiomyocytes; at 100 μM where stated, Table 1): without some level of cytotoxicity

Structure (SMILES): O=c1cc(-c2ccc(O)cc2)oc2c([C@@H]3O[C@H](CO)[C@@H](O)[C@H](O)[C@H]3O)c(O)cc(O)c12 [vitexin]
decrease in apoptosis, compared to doxorubicin without protective agent [4]: at least 60%
long term mitochondrial protection [5]: improved long term mitochondrial protection
decrease in the number of active electrodes ([6]; 1 μM doxorubicin and 11.6 μM vitexin): ~50%
decrease in the number of active electrodes ([6]; 1 μM doxorubicin and 37 μM vitexin): ~25%
decrease in the number of active electrodes ([6]; 1 μM doxorubicin and 116 μM vitexin): ~0%
average number of active electrodes ([6]; 1 μM doxorubicin and 116 μM vitexin, 30 hours): about 10 active electrodes
difference in the percentage of cell death vs doxorubicin without protective agent (A549 cells): no significant difference
difference in beat period or field potential duration vs control samples [7]: no appreciable difference
decrease in the number of active electrodes relative to the mock-treated sample [3]: no observable decrease
difference in the percentage of cell death vs doxorubicin without protective agent (MDA-MB-231 cells): no significant difference
